{"source": "patent US20040009933A1", "about": "“Fluorescent nitrogenous base and nucleosides incorporating same” (Glen Research Corporation, priority 2002, published 2004)", "key": {"AmpiTaq DNA polymerase": {"biological_target": "T1, AmpiTaq DNA polymerase (Thermus aquaticus, UniProt P19821)", "T1 construct": "purchased Applied Biosystems", "assay": "PCR and sequencing with pyrrolo-dCTP replacing dCTP", "format": "biochemical", "conditions": "dye-terminator cycle sequencing of PCR product", "source_text": "The triphosphate of pyrrolo-dC (pyrrolo-dCTP) was synthesized and compared with dCTP for its ability to be recognized by polymerases and be incorporated as a dC into polymerase generated products. Nucleotide-triphosphate mixes containing either dCTP or pyrrolo-dCTP were used in amplification reactions similar to the ones above and the product analyzed by acrylamide gel.\nThe PCR and sequencing experiments in Example 15 were repeated to determine if polymerases incorporated pyrrolo-dCTP as efficiently as dCTP (FIGS. 7 & 8). Purified plasmid DNA with 500-600 bp inserts were amplified in a standard 25 μl PCR reaction. One of the primers was biotinylated to facilitate the post-reaction cleanup of the PCR product. AmpiTaq DNA polymerase (1.25 Units, Applied Biosystems) was used as enzyme with 200 μM final concentration of each dNTP. In the pyrrolo-dCTP samples the dCTP was replaced with 200 μM pyrrolo-dCTP. Following the PCR reaction (55° C. annealing for 20 sec, 72° C. extension for 45 sec, 30 cycles) an aliquot of the reaction was subjected to agarose gel electrophoresis to verify the size and quality of the product. […] An aliquot of the purified product, still attached to the magnetic beads, was sequenced in a standard fluorescent dye-terminator cycle sequencing reaction and analyzed on a Beckman CEQ2000XL DNA sequencer."}, "T7 RNA Polymerase": {"biological_target": "T7 RNA Polymerase (Escherichia phage T7, UniProt P00573)", "sequence (P00573 whole entry)": "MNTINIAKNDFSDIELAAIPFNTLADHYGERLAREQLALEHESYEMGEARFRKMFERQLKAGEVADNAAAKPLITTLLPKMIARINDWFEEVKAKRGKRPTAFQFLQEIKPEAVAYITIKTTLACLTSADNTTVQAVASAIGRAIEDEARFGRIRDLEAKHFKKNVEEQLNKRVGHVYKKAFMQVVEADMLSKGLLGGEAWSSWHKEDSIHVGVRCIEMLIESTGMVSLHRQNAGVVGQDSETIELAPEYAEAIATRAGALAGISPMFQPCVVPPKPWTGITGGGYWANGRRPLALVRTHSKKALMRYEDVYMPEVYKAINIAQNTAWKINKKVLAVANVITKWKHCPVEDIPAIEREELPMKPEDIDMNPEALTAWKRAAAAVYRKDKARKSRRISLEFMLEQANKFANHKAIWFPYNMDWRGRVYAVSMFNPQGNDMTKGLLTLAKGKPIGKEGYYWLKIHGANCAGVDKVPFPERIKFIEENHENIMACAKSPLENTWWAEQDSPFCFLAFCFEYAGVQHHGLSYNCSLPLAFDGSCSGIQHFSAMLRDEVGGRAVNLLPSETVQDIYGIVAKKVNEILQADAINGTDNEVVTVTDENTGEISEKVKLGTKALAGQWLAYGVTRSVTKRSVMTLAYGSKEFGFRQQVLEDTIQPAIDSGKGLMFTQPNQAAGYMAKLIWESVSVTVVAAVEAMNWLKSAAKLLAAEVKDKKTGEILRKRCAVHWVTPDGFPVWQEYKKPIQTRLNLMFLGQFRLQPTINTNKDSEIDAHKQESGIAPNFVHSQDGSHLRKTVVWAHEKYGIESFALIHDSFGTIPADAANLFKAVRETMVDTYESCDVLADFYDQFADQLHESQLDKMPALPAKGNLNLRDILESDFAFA", "conditions": "transcription bubble in elongation complexes; cited from earlier work"}, "[1]": {"system": "otherwise duplex hybrid, mismatched base adenosine", "conditions": "mismatched base is adenosine; cited from earlier work"}, "polymerases": {"system": "polymerases", "assay": "Cycle sequencing of PCR fragments made with pyrrolo-dC substituted primer", "format": "biochemical", "conditions": "C in sense strand product, G in antisense strand product", "source_text": "A series of tests was designed to determine if a pyrrolo-dC residue coded as dC for a dG. In this experiment a 100× diluted aliquot of the ˜500 nucleotide insert generated by the control T7 and Sp6 primers was further amplified using a biotinylated Sp6 primer and either a control 42 base M13-T7 primer or one with four pyrrolo-dC substitutions in the T7 sequence. The PCR product was captured on streptavidin beads, excess primers were removed by washing, and the suspension was divided into two portions. One reaction (the antisense strand) was sequenced using an M13 forward primer (using ABI dRhodamine chemistry); the other was sequenced (carried out using Beckman dye terminator chemistry) by using Sp6, after releasing the sense strand by heat denaturation of the immobilized PCR fragment.\nSequencing reactions (in duplicate) were carried out with PCR fragments to determine if pyrrolo-dC substitutes for dC. PCR fragments were generated by using, as template, a 100-fold dilution of the product of T7/bio-Sp6 reaction (similar to lane 5 above) and a primer pair of biotinylated Sp6 and the M13F-T7 (or its pyrrolo-dC-substituted homolog). The PCR fragment from this amplification was purified by streptavidin beads to remove excess primers and the suspension divided into two portions. […] Thus, under cycle sequencing conditions, the pyrrolo-dC residue is read as a dC."}, "[2]": {"assay": "Spectral properties of pyrrolo-dC (extinction coefficients, fluorescence quantum yield)", "format": "physicochemical", "conditions": "for QY (quantum yield): relative to quinine sulfate in O.5 M H2SO4", "source_text": "The spectral properties of pyrrolo-dC, coupled with its unique base-pairing ability, make this fluorescent analog extremely valuable in probing DNA structure. When the pyrrolo-dC is base-paired, its fluorescence can be reduced or quenched through what is most likely base stacking interactions (see Table I)."}, "[3]": {"system": "plasmid 600-nucleotide insert", "assay": "PCR assay: ability of pyrrolo-dC substituted T7 primers to amplify a plasmid insert", "format": "biochemical", "conditions": "primer dilution 4, 1.3, 0.4, 0.15 and 0.05 pmol, FIG. 4", "protocol": "A series of tests were performed to test the ability of the T7 primers synthesized above to function in biological assays. In the first series of tests each of the T7 primers was evaluated in a PCR assay for their ability to amplify a plasmid insert. In the first experiment either the control or one of the experimental T7 forward primers, with one to four pyrrolo-dC substitutions, and an Sp6 reverse primer were tested for their ability to amplify a plasmid 600-nucleotide insert using supramaximal primer concentrations and the PCR products analyzed on an acrylamide gel. The sequences of the T7 forward primers are as follows: 5′-TAA TAC GAX TCA CTA TAG G-3′ (SEQ ID NO.: 6); 5′-TAA TAC GAX TXA CTA TAG G-3′ (SEQ ID NO.: 7); 5′-TAA TAX GAX TXA CTA TAG G-3′ (SEQ ID NO.: 8); 5′-TAA TAX GAX TXA XTA TAG G-3′ (SEQ ID NO.: 9); (control) 5′-TAA TAC GAC TCA CTA TAG G-3′ (SEQ ID NO.: 10), where X=pyrrolo-dC. Analysis of the stained gel was consistent with no differences in either the mobility or intensity of the stained bands corresponding to the 600-nucleotide PCR product generated by the control or experimental T7 primers.\nThe control and experimental T7 primers were next compared in another experiment using limiting concentrations of each of the T7 primers (1.3, 0.4, 0.15 and 0.05 pmole per reaction) and excess Sp6 primer. […]"}, "[4]": {"system": "polymerases Taq, Vent, Pfu", "assay": "PCR with different polymerases using T7 or T7-4 pyrrolo-dC primer", "format": "biochemical", "conditions": "biotinylated Sp6 reverse primer, ~500 nucleotide insert, Vent lower efficiency for both primers", "source_text": "The control and experimental T7 primers were next compared in another experiment using limiting concentrations of each of the T7 primers (1.3, 0.4, 0.15 and 0.05 pmole per reaction) and excess Sp6 primer. […] Finally the control and T7 primer containing four pyrrolo-dC substitutions were compared in their ability to be recognized by a variety of polymerases, Taq from ABI, Vent from New England Biolabs and Pfu from Stratagene. In this case a biotinylated Sp6 primer was used as the reverse primer in the amplification reaction of a plasmid containing an approximately 500 nucleotide insert.\nExperiments were carried out to examine the effect of substituted pyrrolo-dC primers on the activity of several polymerases. Three experiments were carried out to examine the ability of different polymerases (Taq, Vent, Pfu) to use the T7 or T7-4 pyrrolo-dC primer in PCR; the other primer in the pair was biotinylated Sp6. […] In FIG. 6, lane 1 is standards, lane 2 is T7-4 pyrrolo-dC primer with Taq (ABI), lane 3 is T7-4 pyrrolo-dC primer with Vent (NEB), lane 4 is T7-4 pyrrolo-dC primer with Pfu (Stratagene), lane 5 is T7 primer with Taq (ABI), lane 6 is T7 primer with Vent (NEB), lane 7 is T7 primer with Pfu (Stratagene), and lane 8 is standards."}, "[5]": {"system": "complementary strands containing each of the four natural deoxyribonucleotide bases opposite pyrrolo-dC", "assay": "Hybridization specificity: melting temperature (Tm) of 19mer oligonucleotide containing a single pyrrolo-dC", "format": "binding", "protocol": "The hybridization specificity of pyrrolo-dC was evaluated by determining the melting temperature (Tm) of a 19mer oligonucleotide with the sequence 5′-GCC TAA CTT CXG GAG ATG T-3′ (SEQ ID NO.: 1), where X is Pyrrolo-dC which contains a single pyrrolo-dC. This oligonucleotide was annealed to complementary strands containing each of the four natural deoxyribonucleotide bases opposite it. Hybridization was best with a strand containing dG opposite pyrrolo-dC and decreased in the order dG>dT>dA>dC (melting temperature Tm=65, 56, 55 and 52° C. respectively). The effect of multiple incorporations was next evaluated by synthesizing a T7 universal primer where dC was replaced with zero to four pyrrolo-dC residues. All five oligonucleotides had the same Tm as that of the control (57° C.) when hybridized with an oligonucleotide complementary to the T7 primer regardless of the number of pyrrolo-dC/dC substitutions."}}, "note": "“Also recorded” adds a separate entry of the source. [pyrroloC] = pyrrolo-2'-deoxycytidine (fluorescent C analogue)"}
{"compound": "Cc1cc2cn([C@H]3C[C@H](O)[C@@H](CO)O3)c(=O)nc2[nH]1", "note": "[Pyrrolo-dC, 6-Methyl-3-(β-D-2-deoxyribofuranosyl)pyrrolo[2,3-d]pyrimidin-2-one]", "values": [{"measurement": "sequence of PCR product generated with the triphosphate", "setting": "AmpiTaq DNA polymerase", "value": "specifically incorporated as a “dC” opposite a dG residue"}, {"measurement": "increase in fluorescence as the polymerase induces melting", "setting": "T7 RNA Polymerase", "value": "two-fold"}, {"measurement": "fluorescence when mismatched in an otherwise duplex hybrid", "setting": "[1]", "value": "higher than the single-stranded species"}, {"measurement": "how the residue is read under cycle sequencing conditions", "setting": "polymerases", "value": "“read” as a dC; also recorded: read as a dC"}, {"measurement": "E260", "setting": "[2]", "value": "4,000 LImol cm"}, {"measurement": "E345", "setting": "[2]", "value": "3,700 L/mol cm"}, {"measurement": "QY (quantum yield)", "setting": "[2]; double-stranded", "value": 0.02}, {"measurement": "QY (quantum yield)", "setting": "[2]; single-stranded", "value": 0.07}]}
{"compound": "SEQ ID NO.:9: T7 forward primer 5′-TAA TAX GAX TXA XTA TAG G-3′, X=pyrrolo-dC; four substitutions (TAATACGACTCACTATAGG; DNA, [pyrroloC] at 6, 9, 11, 13, backbone not given here)", "values": [{"measurement": "primer amount at which product formation sharply decreases", "setting": "[3]", "value": "around 0.15 pmol"}, {"measurement": "ability to be used by polymerases in PCR versus unsubstituted T7 primer", "setting": "[4]", "value": "equivalence"}]}
{"compound": "SEQ ID NO.: 1: 19mer oligonucleotide 5′-GCC TAA CTT CXG GAG ATG T-3′, where X is Pyrrolo-dC", "values": [{"measurement": "melting temperature Tm", "setting": "[5]; dA opposite pyrrolo-dC", "value": 55, "unit": "°C"}, {"measurement": "melting temperature Tm", "setting": "[5]; dC opposite pyrrolo-dC", "value": 52, "unit": "°C"}, {"measurement": "melting temperature Tm", "setting": "[5]; dG opposite pyrrolo-dC", "value": 65, "unit": "°C"}, {"measurement": "melting temperature Tm", "setting": "[5]; dT opposite pyrrolo-dC", "value": 56, "unit": "°C"}]}
